In patent publication US20230172899A1, “CANNABINOID COMPOSITIONS” (priority 2020, published 2023):
Values after ≈ are worked out from the molar mass of the structure shown. Read-outs that look alike come from different tables or passages of the source.

Legend:
[1] = test system: store-operated calcium entry (SOCE) in Jurkat T cells; assay: SOCE inhibition, Fura-2 Ca2+ bioassay, thapsigargin-induced, Jurkat cells; format: cell-based, human; conditions: for IC50: Homo sapiens; for Combinatory effect on SOCE inhibition when paired with CBGA: isobolographic analysis, pairs expected to inhibit 50%
[2] = test system: store-operated calcium entry (SOCE) in U937 monocytes; assay: SOCE inhibition, Fura-2 Ca2+ bioassay, thapsigargin-induced, U937 cells; format: cell-based, human; conditions: for IC50: Homo sapiens
[3] = test system: store-operated calcium entry (SOCE) in Luva human mast cells; assay: SOCE inhibition, Fura-2 Ca2+ bioassay, thapsigargin-induced, Luva cells; format: cell-based; conditions: for IC50: Homo sapiens, Mast cell, read-out: IC50 SOCE Luva
[4] = test system: store-operated calcium entry (SOCE) in RBL-2H3 rat mast cells; assay: SOCE inhibition, Fura-2 Ca2+ bioassay, thapsigargin-induced, RBL-2H3 cells; format: cell-based; conditions: for IC50: Rattus norvegicus
[5] = test system: store-operated calcium entry (SOCE) in HEK293 cells; assay: SOCE inhibition, Fura-2 Ca2+ bioassay, thapsigargin-induced, HEK293 cells; format: cell-based, human; conditions: for IC50: Homo sapiens; for Inhibitory effect in immune cells compared with non-immune HEK293 cells: Jurkat vs HEK293 screening, 10 μM
[6] = test system: store-operated calcium entry (SOCE) in THP-1 cells; assay: SOCE inhibition, combinatory (isobolographic) analysis, THP-1 cells; format: cell-based, human; conditions: THP-1 cells; isobolographic analysis, pairs expected to inhibit 50%
Method: Bar graphs shown in FIGS. 10A-10Z and 10BB display SOCE amplitudes calculated from area under the curve (AUC) of the SOCE signals and normalized to SOCE in the presence of gadolinium. Combinatory effects were assessed using an isobolographic analysis approach, where CBGA was paired with another cannabinoid using concentrations of CBGA corresponding to 50%, 40%, 30%, 20%, 10%, and 0% inhibition (as derived from the IC50 curves of FIGS. 9A-9P) and combined with concentrations of the paired cannabinoid, so that each combination would be expected to inhibit 50% of the Ca^2+ signal (e.g., the CBGA concentration causing 50% inhibition was tested alone without the other cannabinoid, the CBGA concentration expected to block 40% of the signal was combined with the concentration of the other cannabinoid expected to inhibit 10%, the CBGA concentration expected to block 30% of the signal was combined with the concentration of the other cannabinoid expected to inhibit 20%, and so on). Simple additivity of cannabinoid pairs would be expected to inhibit the Ca^2+ signal by 50%. All the data in these experiments represent an average of 3 independent runs and the values are graphed as mean values±SEM.

[7] = Jurkat, read-out: IC50 SOCE Jurkat, Table 5, individual cannabinoids, Jurkat
[8] = U-937, read-out: IC50 SOCE U937, Table 5, individual cannabinoids, U937
[9] = RBL-2H3, read-out: IC50 SOCE RBL-2H3, Table 5, individual cannabinoids, RBL-2H3
[10] = HEK293, read-out: IC50 SOCE HEK-293, Table 5, individual cannabinoids, HEK-293
[11] = Jurkat, read-out: IC50 SOCE Jurkat
[12] = U-937, read-out: IC50 SOCE U937
[13] = RBL-2H3, read-out: IC50 SOCE RBL-2H3
[14] = HEK293, read-out: IC50 SOCE HEK-293

| SMILES | IC50 [1, 7] [µg/mL] | Combinatory effect on SOCE inhibition when paired with CBGA ([1]; Jurkat cells) | IC50 [2, 8] [µg/mL] | IC50 [3] [µg/mL] | IC50 [4, 9] [µg/mL] | IC50 [5, 10] [µg/mL] | other results |
| --- | --- | --- | --- | --- | --- | --- | --- |
| CCCc1cc(O)c2c(c1)OC(C)(C)[C@@H]1CCC(C)=C[C@@H]21 [THCV, (6aR,10aR)-6,6,9-trimethyl-3-propyl-6a,7,8,10a-tetrahydro-6H-benzo[c]chromen-1-ol] | 10.7 (≈ 37.5 µM) | stronger than predicted inhibitions | > 50 | > 50 | > 50 | > 50 | Inhibitory effect in immune cells compared with non-immune HEK293 cells [5]: selective |
| CCCCCc1cc(O)c2c(c1)OC(C)(CCC=C(C)C)C=C2 (stereo not shown) [CBC, 2-methyl-2-(4-methylpent-3-en-1-yl)-7-pentyl-2H-chromen-5-ol] | – | – | – | – | – | – | IC50 SOCE Jurkat ([1]; Table 5, individual cannabinoids, Jurkat): 13.06 µg/mL (≈ 41.5 µM); IC50 SOCE U937 ([2]; Table 5, individual cannabinoids, U937): 40.8 µg/mL (≈ 130 µM); IC50 SOCE Luva ([3]; Table 5, individual cannabinoids, Luva): >50 µg/mL; IC50 SOCE RBL-2H3 ([4]; Table 5, individual cannabinoids, RBL-2H3): 26.8 µg/mL (≈ 85.2 µM); IC50 SOCE HEK-293 ([5]; Table 5, individual cannabinoids, HEK-293): 31.6 µg/mL (≈ 100 µM) |
| CCCc1cc2c(c(O)c1C(=O)O)[C@@H]1C=C(C)CC[C@H]1C(C)(C)O2 [THCVA, (6aR,10aR)-1-hydroxy-6,6,9-trimethyl-3-propyl-6a,7,8,10a-tetrahydro-6H-benzo[c]chromene-2-carboxylic acid] | 0.633 (≈ 1.92 µM) | stronger than predicted inhibitions | 20.2 (≈ 61 µM) | 9.43 (≈ 28.5 µM) | 20.2 (≈ 61.2 µM) | 21.3 (≈ 64.6 µM) | Combinatory effect on SOCE inhibition when paired with CBGA [6]: sub-additive combinatory effects |
| CCCCCc1cc2c(c(O)c1C(=O)O)-c1cc(C)ccc1C(C)(C)O2 [CBNA, 1-hydroxy-6,6,9-trimethyl-3-pentyl-6H-benzo[c]chromene-2-carboxylic acid] | 0.99 (≈ 2.79 µM) | Simple additive behavior | 19.2 (≈ 54.1 µM) | 7.25 (≈ 20.5 µM) | > 50 | 22.5 (≈ 63.5 µM) | Combinatory effect on SOCE inhibition when paired with CBGA [6]: sub-additive combinatory effects |
| C=C(C)[C@@H]1CCC(C)=C[C@H]1c1c(O)cc(CCCCC)c(C(=O)O)c1O [CBDA, (1′R,2′R)-2,6-dihydroxy-5′-methyl-4-pentyl-2′-(prop-1-en-2-yl)-1′,2′,3′,4′-tetrahydro-[1,1′-biphenyl]-3-carboxylic acid] | 4.07 (≈ 11.4 µM) | inhibit less than predicted | 5.83 (≈ 16.3 µM) | 5.17 (≈ 14.4 µM) | 2.4 (≈ 6.69 µM) | 16.1 (≈ 45 µM) | Inhibitory effect in immune cells compared with non-immune HEK293 cells [5]: selective; Combinatory effect on SOCE inhibition when paired with CBGA [6]: sub-additive combinatory effects |
| CCCCCc1cc(O)c2c(c1)O[C@]1(C)CCC3[C@@H]1[C@@H]2C3(C)C (stereo partly drawn) [CBL, (1aS,1a1R,3aR,8bR)-1,1,3a-trimethyl-6-pentyl-1a,1a1,2,3,3a,8b-hexahydro-1H-4-oxabenzo[f]cyclobuta[cd] inden-8-ol] | > 50 | Simple additive behavior | > 50 | > 50 | > 50 | > 50 | – |
| CCCc1cc(O)c(C/C=C(\C)CCC=C(C)C)c(O)c1C(=O)O [CBGVA, (E)-3-(3,7-dimethylocta-2,6-dien-1-yl)-2,4-dihydroxy-6-propylbenzoic acid] | 1.15 (≈ 3.46 µM) | Simple additive behavior | 2.86 (≈ 8.6 µM) | 2.6 (≈ 7.82 µM) | 2.53 (≈ 7.61 µM) | 4.15 (≈ 12.5 µM) | Combinatory effect on SOCE inhibition when paired with CBGA [6]: sub-additive combinatory effects |
| CCCCCc1cc(OC)c2c(c1)OC(C)(C)c1ccc(C)cc1-2 [CBNM, 1-methoxy-6,6,9-trimethyl-3-pentyl-6H-benzo[c]chromene] | > 50 | – | > 50 | > 50 | > 50 | > 50 | – |
| CCCCCc1cc2c(c(O)c1C(=O)O)C=C[C@@](C)(CCC=C(C)C)O2 [CBCA, (R)-5-hydroxy-2-methyl-2-(4-methylpent-3-en-1-yl)-7-pentyl-2H-chromene-6-carboxylic acid] | 1.13 (≈ 3.15 µM) | Simple additive behavior | > 50 | 29.1 (≈ 81.3 µM) | > 50 | > 50 | – |
| C=C(C)c1ccc(C)cc1-c1c(O)cc(CCCCC)cc1O [CBND, 5′-methyl-4-pentyl-2′-(prop-1-en-2-yl)-[1,1′-biphenyl]-2,6-diol] | 6.7 (≈ 21.6 µM) | Simple additive behavior | 24 (≈ 77.3 µM) | > 50 | 19 (≈ 61.2 µM) | 32.8 (≈ 106 µM) | – |
| CCCCCc1cc2c(c(O)c1C(=O)O)[C@@H]1[C@H]3C(CC[C@@]3(C)O2)C1(C)C (stereo partly drawn) [CBLA, (1aS,1a1R,3aR,8bR)-8-hydroxy-1,1,3a-trimethyl-6-pentyl-1a,1a1,2,3,3a,8b-hexahydro-1H-4-oxabenzo[f]cyclobuta[cd] indene-7-carboxylic acid] | – | inhibit less than predicted | – | 12.4 (≈ 34.5 µM) | – | – | IC50 [1, 11]: 9.29 µg/mL (≈ 25.9 µM); IC50 [2, 12]: 28.3 µg/mL (≈ 79 µM); IC50 [4, 13]: 20.9 µg/mL (≈ 58.2 µM); IC50 [5, 14]: > 50 µg/mL |
| CCCCCc1cc(O)c2c(c1)OC(C)(C)[C@@H]1CCC(C)=C[C@@H]21 [Δ9-THC, (6aR,10aR)-6,6,9-trimethyl-3-pentyl-6a,7,8,10a-tetrahydro-6H-benzo[c]chromen-1-ol] | > 50 | – | > 50 | > 50 | 0.97 (≈ 3.08 µM) | > 50 | Effect on SOCE (Ca2+ signals), pure compounds ([1]; Jurkat cells, compounds at 10 μM, 1 μM thapsigargin): low to no effects; IC50 on SOCE relative to acidic variations ([1]; Jurkat cells, dose response 0 to 30 μM): higher IC50 than their acidic variations |
| CCCCCc1cc(O)c2c(c1)OC(C)(C)[C@@H]1CCC(C(=O)O)=C[C@@H]21 [11-nor-COOH-Δ9-THC, (6aR,10aR)-1-hydroxy-6,6-dimethyl-3-pentyl-6a,7,8,10a-tetrahydro-6H-benzo[c]chromene-9-carboxylic acid] | – | – | – | – | – | – | Inhibitory effect in immune cells compared with non-immune HEK293 cells [5]: selective |
| C=C(C)[C@@H]1CCC(C)=C[C@H]1c1c(O)cc(CCC)c(C(=O)O)c1O [CBDVA, (1′R,2′R)-2,6-dihydroxy-5′-methyl-2′-(prop-1-en-2-yl)-4-propyl-1′,2′,3′,4′-tetrahydro-[1,1′-biphenyl]-3-carboxylic acid] | – | inhibit less than predicted | – | 8.45 (≈ 25.6 µM) | – | – | IC50 [1, 11]: 11.3 µg/mL (≈ 34.2 µM); IC50 [2, 12]: 10.6 µg/mL (≈ 32.2 µM); IC50 [4, 13]: 11.3 µg/mL (≈ 34.3 µM); IC50 [5, 14]: 23.5 µg/mL (≈ 71.2 µM) |
| C=C(C)[C@@H]1CCC(C)=C[C@H]1c1c(O)cc(CCC)cc1O [CBDV, (1′R,2′R)-5′-methyl-2′-(prop-1-en-2-yl)-4-propyl-1′,2′,3′,4′-tetrahydro-[1,1′-biphenyl]-2,6-diol] | 6 (≈ 20.9 µM) | inhibit less than predicted | 17.5 (≈ 61.1 µM) | > 50 | 0.17 (≈ 0.594 µM) | 30.2 (≈ 105 µM) | Inhibitory effect in immune cells compared with non-immune HEK293 cells [5]: selective |
